According to patent publication US5324750A, “Compositions and methods for drug delivery and chromatography” (priority 1988, dated 1994):
Counter-ions that a name gives are not always drawn.

Tests used:
[1] = Stability of cyclodextrin derivatives in solution / on storage (hydrolysis); format: physicochemical
[2] = Solubility of amino cyclodextrins compared with unsubstituted cyclodextrin; format: physicochemical; conditions: water or other aqueous-based media
Description: Solubility--refers to solution in water or other aqueous-based media.

Compound	stability in solution [1]	hydrolysis ([1]; general / in water / during purification)	solubility [2]
[N-]=[N+]=NC[C@H]1O[C@@H]2O[C@H]3[C@H](O)[C@@H](O)[C@@H](O[C@H]4[C@H](O)[C@@H](O)[C@@H](O[C@H]5[C@H](O)[C@@H](O)[C@@H](O[C@H]6[C@H](O)[C@@H](O)[C@@H](O[C@H]7[C@H](O)[C@@H](O)[C@@H](O[C@H]1[C@H](O)[C@H]2O)O[C@@H]7CO)O[C@@H]6CO)O[C@@H]5CO)O[C@@H]4CO)O[C@@H]3CO [6-Axido-6-Deoxy-α-Cyclodextrin, 6^A -Azido-6^A -deoxy-α-cyclodextrin]	not very stable in solution	–	–
CC(=O)O[C@H]1[C@H]2O[C@H]3[C@H](O)[C@@H](O)[C@@H](O[C@H]4[C@H](O)[C@@H](O)[C@@H](O[C@H]5[C@H](O)[C@@H](O)[C@@H](O[C@H]6[C@H](O)[C@@H](O)[C@@H](O[C@H]7[C@H](O)[C@@H](O)[C@@H](O[C@@H]([C@@H]1O)[C@@H](CO)O2)O[C@@H]7CO)O[C@@H]6CO)O[C@@H]5CO)O[C@@H]4CO)O[C@@H]3CO [α-2CDOAc, 2^A -O-Acetyl-α-cyclodextrin]	–	total purification could not be achieved due to hydrolysis of the product	–
NC[C@H]1O[C@@H]2O[C@H]3[C@H](O)[C@@H](O)[C@@H](O[C@H]4[C@H](O)[C@@H](O)[C@@H](O[C@H]5[C@H](O)[C@@H](O)[C@@H](O[C@H]6[C@H](O)[C@@H](O)[C@@H](O[C@H]7[C@H](O)[C@@H](O)[C@@H](O[C@H]8[C@H](O)[C@@H](O)[C@@H](O[C@H]1[C@H](O)[C@H]2O)O[C@@H]8CO)O[C@@H]7CO)O[C@@H]6CO)O[C@@H]5CO)O[C@@H]4CO)O[C@@H]3CO [6^A -amino-6^A -deoxy-β-cyclodextrin, 6^A -Amino-6^A -deoxy-β-cyclodextrin]	not stable in solution	–	about 4.8 g/100 ml
NC[C@H]1O[C@@H]2O[C@H]3[C@H](O)[C@@H](O)[C@@H](O[C@H]4[C@H](O)[C@@H](O)[C@@H](O[C@H]5[C@H](O)[C@@H](O)[C@@H](O[C@H]6[C@H](O)[C@@H](O)[C@@H](O[C@H]7[C@H](O)[C@@H](O)[C@@H](O[C@H]8[C@H](O)[C@@H](O)[C@@H](O[C@H]1[C@H](O)[C@H]2O)O[C@@H]8CO)O[C@@H]7CO)O[C@@H]6CO)O[C@@H]5CO)O[C@@H]4CO)O[C@@H]3CO [6^A -amino-6^A -deoxy-β-cyclodextrin hydrochloride salt]	–	–	greater than 20 g/100 ml
